Molecular target: T1, GPR6 receptor expressed in CHO-K1 cells (Homo sapiens, UniProt P46095)
T1 construct: expressed in transfected cells
Experiment: In vitro inhibition of cAMP (EC50), cell-based HTRF cAMP assay
Conditions: inhibition of constitutive cAMP activity of GPR6 in CHO-K1 cells
Summary of the method: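 Tetracycline-inducible CHO-K1 line, GPR6 expression induced 20 h with 2 μg/mL doxycycline. Compounds incubated 45 min at 37 °C in Ringer's buffer (pH 7.4) with 0.5% fatty acid free BSA and 300 μM IBMX. Constitutive cAMP read by Lance HTRF; EC50 from four-parameter logistic fit.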

T1 sequence (P46095 whole entry): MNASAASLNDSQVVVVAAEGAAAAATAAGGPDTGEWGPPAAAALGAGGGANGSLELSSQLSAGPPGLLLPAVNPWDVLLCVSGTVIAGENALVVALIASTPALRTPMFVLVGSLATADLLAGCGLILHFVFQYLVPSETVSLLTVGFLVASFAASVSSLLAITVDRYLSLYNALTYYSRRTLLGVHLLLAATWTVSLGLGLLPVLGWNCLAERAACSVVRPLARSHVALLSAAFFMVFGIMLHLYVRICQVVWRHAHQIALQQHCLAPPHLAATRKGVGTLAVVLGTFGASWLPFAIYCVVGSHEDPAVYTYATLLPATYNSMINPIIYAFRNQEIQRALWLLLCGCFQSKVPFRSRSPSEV

| pEC50, in vitro inhibition of cAMP | SMILES |
| --- | --- |
| 6.8 | COc1ccc(F)c(CN2CCN(c3ccc(C#N)cc3NC(=O)c3cccnc3OC)CC2)c1 [Example 242, N-(5-cyano-2-(4-(2-fluoro-5-methoxybenzyl)piperazin-1-yl)phenyl)-2-methoxynicotinamide] |
| 6.4 | Cc1sc2ncc(C(=O)Nc3cc(C#N)ccc3N3CCC(Oc4ccc(F)cc4F)CC3)c(=O)n2c1C [Example 198, N-(5-cyano-2-(4-(2,4-difluorophenoxy)piperidin-1-yl)phenyl)-2,3-dimethyl-5-oxo-5H-thiazolo[3,2-a]pyrimidine-6-carboxamide] |
| 7.0 | COc1ncccc1C(=O)Nc1cc(C#N)ccc1N1CCN(Cc2ccccc2C#N)CC1 [Example 245, N-(5-cyano-2-(4-(2-cyanobenzyl)piperazin-1-yl)phenyl)-2-methoxynicotinamide] |
| 6.8 | COc1c(F)cc(F)cc1C(=O)Nc1cc(C#N)ccc1N1CCC(Oc2ccc(F)cc2F)CC1 [Example 207, N-(5-cyano-2-(4-(2,4-difluorophenoxy)piperidin-1-yl)phenyl)-3,5-difluoro-2-methoxybenzamide] |

Second part, the molecule before the results:

| SMILES | pEC50, in vitro inhibition of cAMP |
| --- | --- |
| COc1ccc(CN2CCN(c3ncc(C#N)cc3NC(=O)c3cn(C)nc3OC)CC2)c(F)c1 [Example 152, N-(5-cyano-2-(4-(2-fluoro-4-methoxybenzyl)piperazin-1-yl)pyridin-3-yl)-3-methoxy-1-methyl-1H-pyrazole-4-carboxamide] | 7.1 |
| COc1ccncc1C(=O)Nc1ccc(C)nc1N1CCC(Oc2ccc(F)cc2F)CC1 [Example 62, N-(2-(4-(2,4-difluorophenoxy)piperidin-1-yl)-6-methylpyridin-3-yl)-4-methoxynicotinamide] | 7.3 |
| COc1nn(C)cc1C(=O)Nc1cc(C#N)cnc1N1CCN(Cc2ccc(Cl)cc2F)CC1 [Example 172, N-(2-(4-(4-chloro-2-fluorobenzyl)piperazin-1-yl)-5-cyanopyridin-3-yl)-3-methoxy-1-methyl-1H-pyrazole-4-carboxamide] | 7.1 |
| COc1ncccc1C(=O)Nc1cc(S(C)(=O)=O)ccc1N1CCN(C(=O)c2ccc(F)cc2C)CC1 [Example 95, N-(2-(4-(4-fluoro-2-methylbenzoyl)piperazin-1-yl)-5-(methylsulfonyl)phenyl)-2-methoxynicotinamide] | 6.2 |
| CC(C)n1cccc(C(=O)Nc2cc(C#N)ccc2N2CCC(Oc3ccc(F)cc3F)CC2)c1=O [Example 181, N-(5-cyano-2-(4-(2,4-difluorophenoxy)piperidin-1-yl)phenyl)-1-isopropyl-2-oxo-1,2-dihydropyridine-3-carboxamide] | 6.4 |
| Cc1nccnc1C(=O)Nc1cc(C#N)ccc1N1CCC(Oc2ccc(F)cc2F)CC1 [Example 115, N-(5-cyano-2-(4-(2,4-difluorophenoxy)piperidin-1-yl)phenyl)-3-methylpyrazine-2-carboxamide] | 6.6 |
| COc1ccc(C(=O)Nc2cc(C#N)ccc2N2CCC(Oc3ccc(F)cc3F)CC2)nc1 [Example 133, N-(5-cyano-2-(4-(2,4-difluorophenoxy)piperidin-1-yl)phenyl)-5-methoxypicolinamide] | 7.1 |
| COc1ncccc1C(=O)Nc1cc(C#N)cnc1N1CCC(Oc2ccc(F)cc2F)CC1 [Example 63, N-(5-cyano-2-(4-(2,4-difluorophenoxy)piperidin-1-yl)pyridin-3-yl)-2-methoxynicotinamide] | 7.1 |
| COc1ncccc1C(=O)Nc1cc(C#N)ccc1N1CCN(Cc2ccsc2)CC1 [Example 73, N-(5-cyano-2-(4-(thiophen-3-ylmethyl)piperazin-1-yl)phenyl)-2-methoxynicotinamide] | 6.5 |

Source: patent US11426397B2, “Piperidinyl- and piperazinyl-substituted heteroaromatic carboxamides as modulators of GPR6” (TAKEDA PHARMACEUTICAL COMPANY LIMITED, priority 2017, dated 2022)
